Consider three compounds from patent US11642341B2, “Combination of brexpiprazole and nalmefene and use thereof for treating substance-related disorders” (OTSUKA PHARMACEUTICAL CO., LTD., priority 2014, dated 2023).

One data set deals with rat. Kind of data set: Spontaneous locomotor activity under novel environments. In kind it is in vivo. As to conditions: data not shown.
Data set [1] deals with Wistar rats. Kind of data set: Measurement of alcohol intake by limited access paradigm. In kind it is in vivo. As to conditions: data not shown. The procedure:
Measurement method: An impulsive behavior of cravings for drinking alcohol was evaluated as follows by reference to the method of Sinclair et al. (Alcohol 1992; 9:441-44 and Alcohol & Alcoholism 2001; 36:2-10). First, Wistar rats (male) were allowed to freely drink 10% aqueous ethanol solution and tap water for several weeks under isolated rearing. After the ethanol intake of each animal became stable, limited access paradigm allowing ethanol intake only for 1 hr per day was started, and the ethanol intake in 1 hr was measured every day. The ethanol intake was calculated from the results of weight measurement of a water supply bottle filled with 10% aqueous ethanol solution immediately before the start of the limited access paradigm and immediately after the completion of the limited access paradigm. […] The limited access paradigm test was performed during 9:00 AM-4:00 PM. […]
The significance level of the test was set to 5%. […] The difference between an average ethanol intake in the limited access paradigm for 4 days immediately before drug evaluation and an average ethanol intake in the limited access paradigm for 4 days during the drug administration period was calculated for every animal, and analyzed by two-way factorial analysis of variance by using the presence or absence of brexpiprazole and the presence or absence of nalmefene as factors.

Data set [2] relates to Wistar rats. Conditions: report Alcohol & Alcoholism 2001; 36: 2-10; present dose 0.04 mg/kg; cited from earlier work.
The mark [3] stands for this setting: brexpiprazole alone 0.01 mg/kg orally.
Setting [4] is: nalmefene hydrochloride monohydrate alone 0.04 mg/kg subcutaneously.

Molecules are shown by their SMILES. Counter-ions that a name gives are not always drawn.

With `O=c1ccc2ccc(OCCCCN3CCN(c4cccc5sccc45)CC3)cc2[nH]1` [brexpiprazole, 7-[4-(4-benzo[b]thiophen-4-yl-piperazin-1-yl)butoxy]-1H-quinolin-2-one], the “influence on spontaneous locomotor activity under novel environments, drug by itself” value with rat (setting [3]) is recorded as “does not, by itself, influence”. In addition, the “influence on ethanol intake, drug by itself” value in the data set with Wistar rats [1] (setting [3]) is reported as “does not, by itself, influence”.

As to `C=C1CC[C@@]2(O)[C@H]3Cc4ccc(O)c5c4[C@@]2(CCN3CC2CC2)[C@H]1O5` [nalmefene hydrochloride monohydrate], the “influence on spontaneous locomotor activity under novel environments, drug by itself” value in the data set on rat (setting [4]) is listed as “does not, by itself, influence”. For the same compound, the “influence on ethanol intake, drug by itself” value with Wistar rats [1] (setting [4]) is “does not, by itself, influence”.

As to `C=C1CC[C@@]2(O)[C@H]3Cc4ccc(O)c5c4[C@@]2(CCN3CC2CC2)[C@H]1O5` [nalmefene, 17-(cyclopropylmethyl)-4,5α-epoxy-6-methylenemorphinan-3,14-diol], the “dose at which nalmefene used singly shows effects in this evaluation system, relative to the dose used in the present test” value with Wistar rats [2] is “about 10 times”.
